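Values below derive from 48-hour exposures of cells grown in 96-well plates, with endpoints linearly interpolated between the two concentrations bracketing the appropriate inhibition level. The concentration for 50% growth inhibition is given as GI50.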 Calls of active or inactive are those of the source. Cut-off read from the data, not from the text of the source: active = GI50 up to about 1.1 µM and inactive = higher.

Test systems include CCRF-CEM; HCC 2998; KM12; LOX IMVI; M14; MOLT-4; NCI-H460; NCI-H522; SF-539; SN12C; SR; SW-620; TK-10; UO-31; A498; IGROV-1; OVCAR-4; SK-MEL-2.
Holding throughout (assay): NCI anticancer screen, dose series, 48 h

In the case of `COc1cc(-c2cc(O)c3ccccc3n2)cc(OC)c1OC`, the GI50 with CCRF-CEM, in the assay on HCC 2998, with KM12, in the assay with LOX IMVI, in the assay on M14 and in the assay with MOLT-4 was > 75 µM (inactive) throughout. The GI50 with NCI-H460, with NCI-H522, with SF-539, in the assay with SN12C, in the assay on SR and in the assay on SW-620 was > 75 µM (inactive) in each case. Further, the GI50 with TK-10 is > 75 µM (inactive); with UO-31, 51.3 µM (inactive).
As to `CC(C)(C)N/N=C(\Cc1occc(=O)c1O)C(=O)Nc1ccc([N+](=O)[O-])cc1[N+](=O)[O-]`, the GI50 in the assay on A498, with CCRF-CEM, with IGROV-1, in the assay with KM12, with LOX IMVI and in the assay with M14 was > 100 µM (inactive) in each case. Moreover, the GI50 in the assay on MOLT-4, in the assay on NCI-H460, in the assay with NCI-H522, in the assay on OVCAR-4, in the assay with SF-539 and in the assay on SK-MEL-2 was > 100 µM (inactive) throughout. Besides, the GI50 with SN12C, in the assay on SR, in the assay with SW-620, in the assay on TK-10 and with UO-31 was > 100 µM (inactive) each time.
Consider `CC1(C)OCC(C(O)C2OC(C)(C)OC2/C=N\O)O1` (centres undefined), for which the GI50 in the assay with A498, in the assay on CCRF-CEM, in the assay on HCC 2998, in the assay with IGROV-1, in the assay with KM12 and in the assay on LOX IMVI was > 100 µM (inactive) throughout. Besides, the GI50 with MOLT-4, with NCI-H460, in the assay on NCI-H522, in the assay with SF-539, with SK-MEL-2 and with SW-620 was > 100 µM (inactive) throughout. Besides, the GI50 in the assay with TK-10 and in the assay with UO-31 was > 100 µM (inactive) in each case.
`CC1(C)C2C=CC1C(=O)CC2` (centres undefined): the GI50 in the assay with A498, with CCRF-CEM, in the assay on HCC 2998, with KM12, in the assay on LOX IMVI and in the assay on M14 was > 100 µM (inactive) throughout. Moreover, the GI50 with MOLT-4, in the assay on NCI-H460, in the assay with NCI-H522, in the assay with OVCAR-4, in the assay with SF-539 and with SK-MEL-2 was > 100 µM (inactive) each time. The GI50 with SW-620, with TK-10 and with UO-31 was > 100 µM (inactive) throughout.
Consider `C[C@]12CCC(=O)C=C1CC[C@@H]1[C@@H]2[C@@H](O)C[C@@]2(C)[C@H]1CC[C@]2(O)C(=O)COC(=O)COCC(=O)O`, for which the GI50 in the assay with A498, in the assay on CCRF-CEM, with HCC 2998, in the assay with IGROV-1, with KM12 and in the assay with LOX IMVI was > 100 µM (inactive) in each case. Besides, the GI50 in the assay with M14, in the assay with MOLT-4, in the assay on NCI-H460, in the assay on NCI-H522, in the assay on OVCAR-4 and in the assay with SF-539 was > 100 µM (inactive) throughout. Besides, the GI50 with SK-MEL-2, in the assay with SN12C, in the assay with SW-620, in the assay with TK-10 and in the assay with UO-31 was > 100 µM (inactive) throughout.
For `O=C(O/N=C1\CCCC\C1=C/c1ccccc1)c1ccc([N+](=O)[O-])cc1`, the GI50 in the assay with CCRF-CEM, in the assay with HCC 2998, with LOX IMVI, in the assay on M14, in the assay on MOLT-4 and with NCI-H460 was > 100 µM (inactive) throughout. The GI50 in the assay with NCI-H522 was 69.8 µM (inactive); in the assay on OVCAR-4, 33.1 µM (inactive); in the assay on SF-539, 41.3 µM (inactive); in the assay with SK-MEL-2, > 100 µM (inactive); with SN12C, > 100 µM (inactive); with SR, > 100 µM (inactive). For the same compound, the GI50 was > 100 µM (inactive) with SW-620 and 98.4 µM (inactive) in the assay with UO-31.
Consider `N#CNC(=N)NC(=O)/C=C/C=C/c1ccc(Cl)cc1`, for which the GI50 in the assay with A498, in the assay with CCRF-CEM, with IGROV-1, in the assay on KM12, with LOX IMVI and in the assay with M14 was > 100 µM (inactive) each time. Moreover, the GI50 is > 100 µM (inactive) with MOLT-4; > 100 µM (inactive) with NCI-H460; > 100 µM (inactive) with NCI-H522; 57.5 µM (inactive) in the assay with OVCAR-4; 21.3 µM (inactive) in the assay with SF-539; > 100 µM (inactive) in the assay with SK-MEL-2. For the same compound, the GI50 with SN12C was > 100 µM (inactive); in the assay with SR, 72.9 µM (inactive); in the assay with SW-620, > 100 µM (inactive); with TK-10 it was 94.2 µM (inactive); in the assay with UO-31, > 100 µM (inactive).
Regarding `CCCCCCCCCCCCCCC(O)C1CCC(C(O)CCC(O)CCCCCC(O)CC2=CC(C)OC2=O)O1` (centres undefined), the GI50 was 4.45 µM (inactive) in the assay on A498; 1.29 µM (inactive) in the assay on CCRF-CEM; 2.51 µM (inactive) with HCC 2998; 1.44 µM (inactive) in the assay on IGROV-1; 1.18 µM (inactive) in the assay on LOX IMVI; 6.3 µM (inactive) in the assay on M14. The GI50 in the assay on MOLT-4 was 0.64 µM (active); in the assay on NCI-H460 it was 1.79 µM (inactive); in the assay with NCI-H522, 1.14 µM (inactive); with OVCAR-4, 0.013 µM (active); with SF-539, 1.3 µM (inactive); in the assay on SK-MEL-2, 2.54 µM (inactive). In addition, the GI50 in the assay with SN12C is 1.24 µM (inactive); in the assay on SW-620, 2.52 µM (inactive); in the assay on TK-10 it was 4.27 µM (inactive); in the assay with UO-31 it was 0.0604 µM (active).
Consider `CC(C)(CN1CCCCC1)C(=O)/C=C/c1ccccc1`, for which the GI50 in the assay on A498 was 18.5 µM (inactive); with CCRF-CEM, 5.93 µM (inactive); in the assay on HCC 2998 it was 14.7 µM (inactive); in the assay on IGROV-1, 22.8 µM (inactive); in the assay on KM12, 9.25 µM (inactive); with LOX IMVI, 18.8 µM (inactive). Moreover, the GI50 is 18.7 µM (inactive) in the assay on M14; 10.3 µM (inactive) in the assay with MOLT-4; 22.4 µM (inactive) with NCI-H460; 13.2 µM (inactive) with NCI-H522; 26 µM (inactive) with OVCAR-4; 10.8 µM (inactive) in the assay on SF-539. For the same compound, the GI50 was 14.4 µM (inactive) with SK-MEL-2; 15.4 µM (inactive) in the assay on SN12C; 11.6 µM (inactive) in the assay with SW-620; 16.3 µM (inactive) with TK-10; 15.2 µM (inactive) in the assay on UO-31.
With `COc1ccc(-c2cc(-c3ccco3)c(C#N)c(=O)[nH]2)cc1`, the GI50 in the assay on A498 was 28.2 µM (inactive); with CCRF-CEM, > 100 µM (inactive); in the assay on HCC 2998, > 100 µM (inactive); in the assay on IGROV-1, > 100 µM (inactive); in the assay with KM12 it was > 100 µM (inactive); in the assay on LOX IMVI it was > 100 µM (inactive). The GI50 in the assay on M14 was > 100 µM (inactive); in the assay with MOLT-4 it was > 100 µM (inactive); in the assay on NCI-H460, 35.1 µM (inactive); with NCI-H522, 20.3 µM (inactive); in the assay on OVCAR-4 it was 29.2 µM (inactive); in the assay on SF-539 it was 15.8 µM (inactive). The GI50 with SN12C is 32.1 µM (inactive); with SW-620, > 100 µM (inactive); in the assay with TK-10, 50.8 µM (inactive); in the assay with UO-31, > 100 µM (inactive).
Consider `Cc1c2ccncc2c(C)c2c1[nH]c1ccc(O)c(OCC(F)(F)F)c12`, for which the GI50 in the assay with A498 is 15.2 µM (inactive); in the assay on CCRF-CEM, 2.33 µM (inactive); in the assay with HCC 2998 it was 9.42 µM (inactive); in the assay with IGROV-1, 8.22 µM (inactive); in the assay with LOX IMVI, 1.38 µM (inactive); in the assay on M14, 9.55 µM (inactive). The GI50 in the assay on MOLT-4 was 2.01 µM (inactive); in the assay on NCI-H460 it was 2.18 µM (inactive); in the assay on NCI-H522 it was 4.5 µM (inactive); with OVCAR-4 it was 4.08 µM (inactive); in the assay with SF-539, 6.05 µM (inactive); in the assay with SK-MEL-2, 12 µM (inactive). In addition, the GI50 is 8.2 µM (inactive) in the assay with SN12C, 3.55 µM (inactive) with SW-620, 13.6 µM (inactive) with TK-10 and 9.66 µM (inactive) in the assay with UO-31.
In the case of `Cn1c(=O)nc2n(-c3ccc(O)cc3)c3ccccc3nc-2c1=O`, the GI50 is > 100 µM (inactive) in the assay on A498; 33 µM (inactive) with CCRF-CEM; 29.9 µM (inactive) in the assay with HCC 2998; > 100 µM (inactive) in the assay on IGROV-1; 55.3 µM (inactive) with KM12; 20.4 µM (inactive) in the assay on M14. For the same compound, the GI50 in the assay on MOLT-4 is 54.5 µM (inactive); in the assay with NCI-H460, 11 µM (inactive); in the assay with NCI-H522 it was > 100 µM (inactive); in the assay on OVCAR-4, > 100 µM (inactive); with SF-539, 5.56 µM (inactive); in the assay on SK-MEL-2 it was 82.2 µM (inactive). The GI50 in the assay with SN12C was > 100 µM (inactive); in the assay with SW-620 it was 76.4 µM (inactive); in the assay on TK-10 it was > 100 µM (inactive); in the assay on UO-31 it was > 100 µM (inactive).

For the origin of these results see ChEMBL document CHEMBL1201862, “PubChem BioAssay data set” (2004).
